Legend:
[1] = target: T1, Epidermal growth factor receptor (Homo sapiens, UniProt P00533); experiment: Inhibition of N-terminal GST-tagged human EGFR cytoplasmic domain (669-1210 AA) expressed in baculovirus at 10 uM using FAM-labelled peptide as substrate pre-incubated for 10 mins followed by substrate addition by mobility shift assay relative to control
[2] = target: T1, Epidermal growth factor receptor; experiment: Inhibition of N-terminal GST-tagged human EGFR (d746-750AA) expressed in baculovirus at 10 uM using FAM-labelled peptide as substrate pre-incubated for 10 mins followed by substrate addition by mobility shift assay relative to control
[3] = tested on: Epidermal growth factor receptor (Homo sapiens), P00533 [L858R]; experiment: Inhibition of recombinant human EGFR L858R mutant expressed in baculovirus at 10 uM using FAM-labelled peptide as substrate pre-incubated for 10 mins followed by substrate addition by mobility shift assay relative to control
[4] = target: Fibroblast growth factor receptor 1 (Homo sapiens, UniProt P11362); experiment: Inhibition of N-terminal GST-tagged human FGFR1 cytoplasmic domain (398-822 AA) expressed in baculovirus at 10 uM using FAM-labelled peptide as substrate pre-incubated for 10 mins followed by substrate addition by mobility shift assay relative to control
HCC827 = experiment: Antiproliferative activity against human HCC827 cells assessed as inhibition of cell growth at 10 uM incubated for 48 hrs by MTT assay relative to control; format: functional; conditions: HCC827, 48 h
PC-9 = experiment: Antiproliferative activity against human PC9 cells assessed as inhibition of cell growth at 10 uM incubated for 48 hrs by MTT assay relative to control; format: functional; conditions: PC-9, 48 h
NCI-H520 = experiment: Antiproliferative activity against human NCI-H520 cells assessed as inhibition of cell growth at 10 uM incubated for 48 hrs by MTT assay relative to control; format: functional; conditions: NCI-H520, 48 h
NCI-H1581 = experiment: Antiproliferative activity against human NCI-H1581 cells assessed as inhibition of cell growth at 10 uM incubated for 48 hrs by MTT assay relative to control; format: functional; conditions: NCI-H1581, 48 h
NCI-H226 = experiment: Antiproliferative activity against human NCI-H226 cells assessed as inhibition of cell growth at 10 uM incubated for 48 hrs by MTT assay relative to control; format: functional; conditions: NCI-H226, 48 h

Epidermal growth factor receptor (Homo sapiens), P00533 [L858R], sequence (P00533 whole entry L858R, the tested form may be a part): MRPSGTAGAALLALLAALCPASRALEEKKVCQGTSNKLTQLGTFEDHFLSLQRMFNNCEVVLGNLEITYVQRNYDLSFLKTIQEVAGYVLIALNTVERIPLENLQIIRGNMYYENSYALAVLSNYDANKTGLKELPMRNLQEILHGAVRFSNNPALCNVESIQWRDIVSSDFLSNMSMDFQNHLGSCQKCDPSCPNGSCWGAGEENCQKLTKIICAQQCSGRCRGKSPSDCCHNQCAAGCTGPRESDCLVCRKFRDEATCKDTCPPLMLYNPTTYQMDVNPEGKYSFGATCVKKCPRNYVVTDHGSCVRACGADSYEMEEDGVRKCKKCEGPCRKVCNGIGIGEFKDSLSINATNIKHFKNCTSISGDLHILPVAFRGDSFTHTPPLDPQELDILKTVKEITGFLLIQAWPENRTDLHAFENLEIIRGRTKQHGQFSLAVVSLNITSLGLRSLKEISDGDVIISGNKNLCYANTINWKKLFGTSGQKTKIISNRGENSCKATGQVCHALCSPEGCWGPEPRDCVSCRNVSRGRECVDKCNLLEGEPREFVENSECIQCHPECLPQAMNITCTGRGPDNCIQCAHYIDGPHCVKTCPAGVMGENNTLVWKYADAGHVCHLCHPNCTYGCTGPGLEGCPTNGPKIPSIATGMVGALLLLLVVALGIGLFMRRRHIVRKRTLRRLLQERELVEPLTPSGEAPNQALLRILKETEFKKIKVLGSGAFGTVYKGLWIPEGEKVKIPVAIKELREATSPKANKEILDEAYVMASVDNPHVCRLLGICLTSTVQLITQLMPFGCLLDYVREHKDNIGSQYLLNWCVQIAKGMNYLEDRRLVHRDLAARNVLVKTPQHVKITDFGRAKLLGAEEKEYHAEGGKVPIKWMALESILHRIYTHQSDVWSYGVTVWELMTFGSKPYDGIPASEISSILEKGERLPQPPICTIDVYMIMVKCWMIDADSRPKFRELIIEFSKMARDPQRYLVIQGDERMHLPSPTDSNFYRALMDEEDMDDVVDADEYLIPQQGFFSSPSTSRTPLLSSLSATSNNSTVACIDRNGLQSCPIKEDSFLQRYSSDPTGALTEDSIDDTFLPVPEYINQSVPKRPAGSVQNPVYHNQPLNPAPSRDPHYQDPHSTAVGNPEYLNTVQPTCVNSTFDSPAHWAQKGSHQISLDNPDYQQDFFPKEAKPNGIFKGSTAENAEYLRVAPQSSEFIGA
Fibroblast growth factor receptor 1, sequence (P11362 22-822 limits assumed): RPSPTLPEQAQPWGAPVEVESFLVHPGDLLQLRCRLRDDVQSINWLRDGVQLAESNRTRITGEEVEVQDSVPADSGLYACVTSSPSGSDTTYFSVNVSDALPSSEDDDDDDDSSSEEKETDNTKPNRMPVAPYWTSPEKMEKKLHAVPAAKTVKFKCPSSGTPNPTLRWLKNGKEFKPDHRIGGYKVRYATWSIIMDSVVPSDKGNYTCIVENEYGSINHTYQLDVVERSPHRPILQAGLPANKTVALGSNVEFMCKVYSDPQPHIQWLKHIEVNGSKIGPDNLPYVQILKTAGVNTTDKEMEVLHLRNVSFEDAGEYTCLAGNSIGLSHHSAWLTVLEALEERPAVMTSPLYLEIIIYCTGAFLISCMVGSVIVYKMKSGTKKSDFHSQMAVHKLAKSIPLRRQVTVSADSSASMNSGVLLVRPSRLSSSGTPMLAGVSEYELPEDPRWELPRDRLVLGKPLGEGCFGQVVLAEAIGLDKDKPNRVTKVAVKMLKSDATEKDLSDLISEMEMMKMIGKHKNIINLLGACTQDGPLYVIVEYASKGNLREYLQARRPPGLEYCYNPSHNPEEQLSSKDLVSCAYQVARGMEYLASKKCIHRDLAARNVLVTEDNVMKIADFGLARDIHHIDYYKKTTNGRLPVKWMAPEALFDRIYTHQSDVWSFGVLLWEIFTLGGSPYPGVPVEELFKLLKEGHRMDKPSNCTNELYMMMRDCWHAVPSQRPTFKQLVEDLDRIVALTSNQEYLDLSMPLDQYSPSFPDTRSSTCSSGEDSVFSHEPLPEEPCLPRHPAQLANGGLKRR
T1 sequence (P00533 whole entry, the tested form may be a part): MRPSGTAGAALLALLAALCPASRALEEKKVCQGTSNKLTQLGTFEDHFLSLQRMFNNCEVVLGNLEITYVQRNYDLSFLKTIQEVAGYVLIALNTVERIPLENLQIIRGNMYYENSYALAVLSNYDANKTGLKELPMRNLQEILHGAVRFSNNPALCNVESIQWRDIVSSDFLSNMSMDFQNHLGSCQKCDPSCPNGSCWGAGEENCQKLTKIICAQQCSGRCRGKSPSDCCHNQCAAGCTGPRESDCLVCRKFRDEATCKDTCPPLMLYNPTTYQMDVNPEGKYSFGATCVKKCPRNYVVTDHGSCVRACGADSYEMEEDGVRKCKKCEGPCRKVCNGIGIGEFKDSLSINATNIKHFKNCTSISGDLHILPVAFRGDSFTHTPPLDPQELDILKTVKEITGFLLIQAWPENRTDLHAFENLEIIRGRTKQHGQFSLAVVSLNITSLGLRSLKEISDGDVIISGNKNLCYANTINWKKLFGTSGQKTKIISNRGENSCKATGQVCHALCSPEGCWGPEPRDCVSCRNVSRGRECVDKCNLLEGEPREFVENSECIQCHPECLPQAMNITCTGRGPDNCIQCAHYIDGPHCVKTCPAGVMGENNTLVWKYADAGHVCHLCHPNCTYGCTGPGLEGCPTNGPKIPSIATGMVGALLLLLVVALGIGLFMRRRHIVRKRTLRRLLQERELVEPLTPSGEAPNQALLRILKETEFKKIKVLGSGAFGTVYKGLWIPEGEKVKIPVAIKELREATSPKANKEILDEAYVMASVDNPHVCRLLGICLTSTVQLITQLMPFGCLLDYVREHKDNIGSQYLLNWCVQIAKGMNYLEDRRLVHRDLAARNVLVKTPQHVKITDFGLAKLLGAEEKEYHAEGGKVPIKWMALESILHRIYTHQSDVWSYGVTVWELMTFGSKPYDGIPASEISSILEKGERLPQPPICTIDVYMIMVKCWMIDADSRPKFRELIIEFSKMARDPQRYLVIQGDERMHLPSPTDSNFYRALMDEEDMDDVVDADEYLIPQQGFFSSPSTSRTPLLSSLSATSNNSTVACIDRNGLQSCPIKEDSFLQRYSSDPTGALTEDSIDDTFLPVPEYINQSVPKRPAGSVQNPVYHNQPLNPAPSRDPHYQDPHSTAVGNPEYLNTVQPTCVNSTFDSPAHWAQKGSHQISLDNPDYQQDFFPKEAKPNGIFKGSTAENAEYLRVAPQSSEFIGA

| Structure (SMILES) | inhibition [1] | inhibition [2] | inhibition [3] | inhibition [4] | inhibition at 10 µM (HCC827) | inhibition at 10 µM (PC-9) | inhibition at 10 µM (NCI-H520) | inhibition at 10 µM (NCI-H1581) | inhibition at 10 µM (NCI-H226) |
| --- | --- | --- | --- | --- | --- | --- | --- | --- | --- |
| CC(C)(C)c1ccc(Nc2cc(NC(=O)Nc3c(Cl)cccc3Cl)ncn2)cc1 | 48.2% | 63.2% | 71.8% | 30.4% | 42.3% | 41.5% | 22% | 71.3% | 40% |
| COc1cc(NC(=O)Nc2cc(Nc3cc(F)ccc3OC)ncn2)cc(OC)c1 | 31.1% | 35.4% | 54.6% | -1.6% | 59% | 59.5% | 38% | 42.1% | 37.7% |
| COc1cc(NC(=O)Nc2cc(Nc3ccc(OC)c(C)c3)ncn2)cc(OC)c1 | 74.9% | 54.9% | 46.5% | 36.6% | 48.3% | 62% | 13.5% | 19.7% | 39.7% |
| CCc1cccc(Nc2cc(NC(=O)Nc3cc(OC)cc(OC)c3)ncn2)c1 | 10.1% | 26% | 41% | 1.1% | 52.6% | 82.1% | 23% | 27.7% | 36.7% |
| COc1cc(NC(=O)Nc2cc(Nc3cccc(C(C)(C)C)c3)ncn2)cc(OC)c1 | 17.1% | 10.4% | 29.3% | 5.2% | 48.7% | 68% | 13.1% | 35% | 40% |
| COc1cc(NC(=O)Nc2cc(Nc3ccc(F)c(Cl)c3)ncn2)cc(OC)c1 | 46.7% | 52.8% | 69.1% | 1% | 53% | 77.5% | 25.5% | 53% | 36.7% |
| COc1cc(Nc2cc(NC(=O)Nc3c(Cl)cccc3Cl)ncn2)cc(C(F)(F)F)c1 | 40% | 48.4% | 69.3% | 0.9% | 57.7% | 88.5% | 23.1% | 32.3% | 33.1% |
| O=C(Nc1cccc(Nc2cc(Nc3cccc(C(F)(F)F)c3)ncn2)c1)C1CC1 | – | – | – | – | 94.7% | 90.5% | 30% | 26% | 52.7% |
| COc1cc(NC(=O)Nc2cc(Nc3ccc(C)c(F)c3)ncn2)cc(OC)c1 | 31.7% | 51.5% | 64.2% | 0.1% | 72% | 77.5% | 30.6% | 38% | 39.7% |
| COc1cc(NC(=O)Nc2cc(Nc3ccc(C)c(C)c3)ncn2)cc(OC)c1 | 54.1% | 43.4% | 39.5% | 21.3% | 45.7% | 66% | 29.5% | 20.1% | 45.3% |
| COc1cc(NC(=O)Nc2cc(Nc3cc(OC)cc(C(F)(F)F)c3)ncn2)cc(OC)c1 | 18.5% | 27.5% | 48.6% | -1.7% | 57.7% | 88.1% | 36.5% | 50.7% | 56% |
| COc1ccc(F)cc1Nc1cc(NC(=O)Nc2c(Cl)cccc2Cl)ncn1 | 39.2% | 48.7% | 63.3% | 11.1% | 78% | 85.5% | 38% | 73.1% | 31.3% |
| COc1cc(NC(=O)Nc2cc(Nc3ccc(C(C)(C)C)cc3)ncn2)cc(OC)c1 | -1.1% | -0.2% | 2.7% | -0.7% | 32.7% | 74.1% | 17.5% | 38.7% | 47.7% |
| COc1ccc(Br)cc1Nc1cc(NC(=O)Nc2c(Cl)cccc2Cl)ncn1 | 87.3% | 93.5% | 95.9% | 37.8% | 53% | 69% | 45% | 53.3% | 33% |
| Cc1ccc(Nc2cc(NC(=O)Nc3c(Cl)cccc3Cl)ncn2)cc1F | 77.8% | 87.1% | 67.2% | 51% | 85.3% | 92% | 33.5% | 45.3% | 40.7% |
| Cc1ccc(Nc2cc(NC(=O)Nc3c(Cl)cccc3Cl)ncn2)cc1C | 64.8% | 58.6% | 63.8% | 45.3% | 84.3% | 92.1% | 47.5% | 73.3% | 41.3% |
| CCc1ccc(Nc2cc(NC(=O)Nc3cc(OC)cc(OC)c3)ncn2)cc1 | 25.4% | 28.1% | 45.7% | 6.1% | 66.2% | 78% | 23.5% | 32.7% | 50.1% |
| CCc1ccc(Nc2cc(NC(=O)Nc3c(Cl)cccc3Cl)ncn2)cc1 | 79% | 89.2% | 89.4% | 47.3% | 58% | 70% | 31.5% | 38.1% | 39.5% |
| COc1ccc(Nc2cc(NC(=O)Nc3c(Cl)cccc3Cl)ncn2)cc1C | 47.3% | 67.4% | 76.4% | 50.4% | 63.1% | 80.1% | 29.1% | 45% | 50% |
| COc1cc(NC(=O)Nc2cc(Nc3ccc(Br)cc3OC)ncn2)cc(OC)c1 | 12.4% | 17.9% | 36.9% | -0.7% | 57.7% | 83% | 36% | 20.1% | 25.7% |
| COc1cc(Br)ccc1Nc1cc(NC(=O)Nc2c(Cl)cccc2Cl)ncn1 | 65.6% | 75.9% | 83.2% | 12.6% | 42.7% | 90.5% | 29.1% | 47.3% | 43% |
| COc1cc(NC(=O)Nc2cc(Nc3ccc(OC)c(I)c3)ncn2)cc(OC)c1 | 31.4% | 43.6% | 46% | 10.3% | 61.7% | 47% | 46.5% | 43% | 40.1% |
| O=C(Nc1cc(Nc2ccc(F)c(Cl)c2)ncn1)Nc1c(Cl)cccc1Cl | 94.3% | 96.7% | 97% | 27.6% | 53.7% | 91.1% | 39.5% | 67% | 47.3% |
| COc1ccc(C(F)(F)F)cc1Nc1cc(NC(=O)Nc2c(Cl)cccc2Cl)ncn1 | 77.5% | 73% | 83.1% | 55.4% | 68.7% | 89% | 33% | 69% | 60.1% |
| COc1cc(NC(=O)Nc2cc(Nc3cc(Br)ccc3OC)ncn2)cc(OC)c1 | 51.4% | 45.2% | 52.4% | -1.5% | 76.3% | 82.5% | 43.5% | 23.1% | 42.7% |
| COc1cc(NC(=O)Nc2cc(Nc3cc(C)cc(F)c3)ncn2)cc(OC)c1 | 8% | 16.7% | 23.1% | 1.1% | 62% | 64.5% | 24.5% | 28.3% | 35.3% |
| CC(C)(C)c1cccc(Nc2cc(NC(=O)Nc3c(Cl)cccc3Cl)ncn2)c1 | 44.7% | 57.4% | 68.4% | 10.7% | 37.3% | 87% | 29.6% | 64.3% | 36.5% |
